Experimental data taken from patent publication US8524277B2, “Extended release dosage form” (Alza Corporation, priority 1998, dated 2013).

Type: physicochemical
Description: Hydrophilic materials for use in forming the interior wall which have solubilities sensitive to osmotic pressure or to ionic strength can be screened experimentally prior to formulating them within the interior wall. This procedure involves forming an aqueous solution of the candidate hydrophilic materials using distilled water as the solvent. Then, the resulting solution is cast onto a smooth inert surface, such as a glass plate, and allowed to dry to a film. The film is then removed and cut into sections of known area, thickness, and weight. The resulting film samples are then placed in a series of reference solutions of various osmotic pressures or ionic strengths with mild stirring. The time required for the film to dissolve, t, is then measured as a function of osmotic pressure or ionic strength. Then, given the known values of initial film thickness, hi, the dissolution rate of the film, dh/dt, can be calculated according to Equation 5. […]
The solubility of various hydrophilic materials to osmotic pressure was evaluated. […] Thicknesses of the discs were measured with a table micrometer. […] The time to dissolution was then monitored for each sample. Dissolution rate was calculated according to Equation 5 and plotted as a function of osmotic pressure for each molecular weight. […]

Substance: hydroxypropylcellulose [Klucel EF]
- osmotic pressure at which the film is insoluble: above 30 atmospheres
- osmotic pressure at which the film is soluble: 0-30 atmospheres
